Experimental data: the NIST ThermoML archive (doi:10.1021/acs.jced.5b00326)
Where “and” joins values, the source holds several entries; their conditions need not be identical. Identical values can stand only once.

Assay: mn = molality of the nth substance listed, in mol/kg
Settings: Liquid; for speed of sound: 100 kPa, Sing-around technique in a fixed-path interferometer; for mass density: 101 kPa, Vibrating tube method

CCCCCCn1cc[n+](C)c1.[Cl-] [1-hexyl-3-methylimidazolium chloride] + O
speed of sound, Frequency=3 MHz
Settings	288.15 K	293.15 K	298.15 K	303.15 K	308.15 K
m1 = 0.01	1474.3 m/s and 1468.6 m/s	1484.6 m/s and 1490.1 m/s	1498.7 m/s and 1505 m/s	1511 m/s and 1517 m/s	1521.3 m/s and 1525.1 m/s
m1 = 0.03	1474.3 m/s	1490.1 m/s	1505 m/s	1517 m/s	1525.1 m/s

mass density [kg/m3]
Settings	288.15 K	293.15 K	298.15 K	303.15 K	308.15 K
m1 = 0.01	999.911	999.007	997.841	996.436	994.818
m1 = 0.03	1000.17	999.246	998.052	996.623	995.004

O=P([O-])([O-])O.[K+].[K+] [dipotassium hydrogen phosphate] + O
Settings	mass density, 288.15 K [kg/m3]	mass density, 293.15 K [kg/m3]	mass density, 298.15 K [kg/m3]	mass density, 303.15 K [kg/m3]	mass density, 308.15 K [kg/m3]	speed of sound, 288.15 K [m/s]	speed of sound, 293.15 K [m/s]	speed of sound, 298.15 K [m/s]	speed of sound, 303.15 K [m/s]	speed of sound, 308.15 K [m/s]
m1 = 0.01907	1001.68	1000.76	999.574	998.164	996.53	1466.9	1484.8	1499.7	1514.5	1522.3
m1 = 0.04894	1005.7	1004.75	1003.53	1002.09	1000.43	1471.1	1489	1503.9	1518.7	1526.5
m1 = 0.06838	1008.31	1007.35	1006.11	1004.65	1002.97	1473.8	1491.8	1506.6	1521.5	1529.3
m1 = 0.09992	1012.56	1011.57	1010.29	1008.79	1007.09	1478.3	1496.2	1511.1	1525.9	1533.7
m1 = 0.1992	1025.92	1024.84	1023.44	1021.85	1020.05	1492.2	1510.2	1525	1539.9	1547.7
m1 = 0.2993	1039.39	1038.23	1036.7	1035.01	1033.13	1506.3	1524.2	1539.1	1554	1561.8
m1 = 0.3965	1052.47	1051.22	1049.58	1047.79	1045.82	1520	1537.9	1552.8	1567.6	1575.4
m1 = 0.4942	1065.63	1064.29	1062.53	1060.65	1058.58	1533.8	1551.7	1566.5	1581.4	1589.2
m1 = 0.6	1079.87	1078.43	1076.55	1074.56	1072.4	1548.6	1566.6	1581.4	1596.3	1604.1
m1 = 0.6969	1092.92	1091.39	1089.39	1087.3	1085.06	1562.3	1580.2	1595.1	1609.9	1617.7
m1 = 0.7929	1105.83	1104.22	1102.11	1099.92	1097.59	1575.8	1593.7	1608.6	1623.4	1631.2
m1 = 0.8916	1119.12	1117.41	1115.18	1112.9	1110.48	1589.7	1607.6	1622.5	1637.3	1645.1
m1 = 0.9907	1132.46	1130.67	1128.32	1125.93	1123.43	1603.6	1621.5	1636.4	1651.2	1659

O=P([O-])([O-])O.[Na+].[Na+] [disodium hydrogen phosphate] + O
speed of sound [m/s], Frequency=3 MHz
Settings	288.15 K	293.15 K	298.15 K	303.15 K	308.15 K
m1 = 0.02076	1467.8	1485.6	1500.3	1515	1522.8
m1 = 0.04991	1472.7	1490.4	1505	1519.3	1527.1
m1 = 0.07047	1476.2	1493.8	1508.3	1522.4	1530.2
m1 = 0.1014	1481.5	1498.9	1513.2	1527.1	1534.9
m1 = 0.1983	1497.9	1514.9	1528.8	1541.6	1549.4
m1 = 0.2992	1515.1	1531.5	1544.9	1556.8	1564.5
m1 = 0.394	1531.2	1547.2	1560.1	1571	1578.8
m1 = 0.4957	1548.5	1564	1576.4	1586.2	1594
m1 = 0.5971	1565.8	1580.7	1592.6	1601.5	1609.3
m1 = 0.6947	1582.4	1596.8	1608.2	1616.1	1623.9
m1 = 0.7942	1599.3	1613.3	1624.2	1631	1638.8
m1 = 0.876	1613.2	1626.8	1637.3	1643.3	1651.1
m1 = 0.976	1630.2	1643.3	1653.3	1658.3	1666.1

mass density [kg/m3]
Settings	288.15 K	293.15 K	298.15 K	303.15 K	308.15 K
m1 = 0.02076	1001.71	1000.78	999.59	998.178	996.536
m1 = 0.04991	1005.35	1004.39	1003.16	1001.72	1000.04
m1 = 0.07047	1007.92	1006.93	1005.68	1004.22	1002.52
m1 = 0.1014	1011.78	1010.76	1009.47	1007.97	1006.24
m1 = 0.1983	1023.89	1022.75	1021.33	1019.74	1017.89
m1 = 0.2992	1036.51	1035.25	1033.7	1032.01	1030.03
m1 = 0.394	1048.36	1046.99	1045.31	1043.53	1041.44
m1 = 0.4957	1061.07	1059.58	1057.77	1055.88	1053.67
m1 = 0.5971	1073.75	1072.14	1070.2	1068.21	1065.88
m1 = 0.6947	1085.95	1084.21	1082.15	1080.06	1077.61
m1 = 0.7942	1098.39	1096.54	1094.34	1092.15	1089.58
m1 = 0.876	1108.62	1106.66	1104.36	1102.1	1099.43
m1 = 0.976	1121.11	1119.04	1116.61	1114.24	1111.45
